In the kinase profiling compilation of Christmann-Franck et al. (2016):
Values joined by “and” are separate entries in the source; they are usually repeats but may differ in a detail not shown here. Equal entries are not always repeated.

Tests used:
Test in all cases: radiometric filter-binding kinase assay
[1] = target: SYK (human) (UniProt P43405); settings: compound 100.0 µM; ATP 20 µM
[2] = target: MAP3K7 TAB1 (human) (UniProt Q15750+O43318); settings: compound 100.0 µM; ATP 5 µM
[3] = target: EPHA2 (human) (UniProt P29317); settings: compound 100.0 µM; ATP 50 µM
[4] = target: STK3 (human) (UniProt Q13188); settings: compound 100.0 µM; ATP 20 µM
[5] = target: INSRR (human) (UniProt P14616); settings: compound 100.0 µM; ATP 5 µM
[6] = target: PRKACA (human) (UniProt P17612); settings: compound 100.0 µM; ATP 20 µM
[7] = target: MAPK3 (human) (UniProt P27361); settings: compound 100.0 µM; ATP 5 µM
[8] = target: CLK2 (human) (UniProt P49760); settings: compound 100.0 µM; ATP 5 µM
[9] = target: MAPKAPK3 (human) (UniProt Q16644); settings: compound 100.0 µM; ATP 20 µM
[10] = target: MAPKAPK5 (human) (UniProt Q8IW41); settings: compound 100.0 µM; ATP 20 µM
[11] = target: PIM2 (human) (UniProt Q9P1W9); settings: compound 100.0 µM; ATP 5 µM
[12] = target: EPHB2 (human) (UniProt P29323); settings: compound 100.0 µM; ATP 20 µM
[13] = target: NTRK1 (human) (UniProt P04629); settings: compound 100.0 µM; ATP 20 µM
[14] = target: RPS6KA1 KD1 KD2 (human) (UniProt Q15418); settings: compound 100.0 µM; ATP 50 µM
[15] = target: MAP3K11 (human) (UniProt Q16584); settings: compound 100.0 µM; ATP 20 µM
[16] = target: PDPK1 (human) (UniProt O15530); settings: compound 100.0 µM
[17] = target: GCK (human) (UniProt Q12851); settings: compound 100.0 µM; ATP 20 µM
[18] = target: MYLK (human) (UniProt Q15746); settings: compound 100.0 µM; ATP 50 µM
[19] = target: MAP2K6 (human) (UniProt P52564); settings: compound 100.0 µM; ATP 50 µM
[20] = target: PAK4 (human) (UniProt O96013); settings: compound 100.0 µM; ATP 5 µM
[21] = target: PRKAA1 PRKAB2 PRKAG1 (human) (UniProt O43741+Q13131+P54619); settings: compound 100.0 µM; ATP 20 µM
[22] = target: GSK3B (human) (UniProt P49841); settings: compound 100.0 µM; ATP 5 µM
[23] = target: MAP3K9 (human) (UniProt P80192); settings: compound 100.0 µM; ATP 20 µM
[24] = target: MARK3 (human) (UniProt P27448); settings: compound 100.0 µM; ATP 5 µM
[25] = target: STK16 (human) (UniProt O75716); settings: compound 100.0 µM; ATP 50 µM
[26] = target: AURKB (human) (UniProt Q96GD4); settings: compound 100.0 µM; ATP 20 µM
[27] = target: HIPK2 (human) (UniProt Q9H2X6); settings: compound 100.0 µM; ATP 5 µM
[28] = target: STK33 (human) (UniProt Q9BYT3); settings: compound 100.0 µM; ATP 50 µM
[29] = target: DAPK1 (human) (UniProt P53355); settings: compound 100.0 µM; ATP 5 µM
[30] = system: PAK2 (human), Q13177 [T402E]; settings: compound 100.0 µM; ATP 20 µM
[31] = target: RIPK2 (human) (UniProt O43353); settings: compound 100.0 µM; ATP 20 µM
[32] = target: FGFR1 (human) (UniProt P11362); settings: compound 100.0 µM; ATP 20 µM
[33] = target: MINK1 (human) (UniProt Q8N4C8); settings: compound 100.0 µM; ATP 50 µM
[34] = target: PRKCZ (human) (UniProt Q05513); settings: compound 100.0 µM; ATP 5 µM
[35] = target: MARK1 (human) (UniProt Q9P0L2); settings: compound 100.0 µM; ATP 20 µM

Sequence of PAK4 (human) (O96013 whole entry, looked up): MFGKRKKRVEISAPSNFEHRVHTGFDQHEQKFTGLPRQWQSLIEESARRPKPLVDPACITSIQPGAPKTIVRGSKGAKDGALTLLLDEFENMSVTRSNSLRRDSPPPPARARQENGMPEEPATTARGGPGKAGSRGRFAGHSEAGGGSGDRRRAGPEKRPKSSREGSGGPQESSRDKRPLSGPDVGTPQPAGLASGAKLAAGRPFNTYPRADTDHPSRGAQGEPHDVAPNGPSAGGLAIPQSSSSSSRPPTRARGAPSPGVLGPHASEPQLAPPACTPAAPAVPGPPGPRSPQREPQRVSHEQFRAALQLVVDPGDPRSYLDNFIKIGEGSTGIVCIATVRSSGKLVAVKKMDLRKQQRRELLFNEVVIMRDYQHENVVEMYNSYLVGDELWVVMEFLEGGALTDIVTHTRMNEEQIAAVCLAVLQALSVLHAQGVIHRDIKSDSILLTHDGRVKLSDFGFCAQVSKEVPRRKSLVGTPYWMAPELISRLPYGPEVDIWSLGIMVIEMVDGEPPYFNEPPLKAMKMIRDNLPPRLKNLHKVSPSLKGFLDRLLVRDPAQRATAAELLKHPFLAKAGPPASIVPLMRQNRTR
Sequence of MINK1 (human) (Q8N4C8 whole entry, looked up): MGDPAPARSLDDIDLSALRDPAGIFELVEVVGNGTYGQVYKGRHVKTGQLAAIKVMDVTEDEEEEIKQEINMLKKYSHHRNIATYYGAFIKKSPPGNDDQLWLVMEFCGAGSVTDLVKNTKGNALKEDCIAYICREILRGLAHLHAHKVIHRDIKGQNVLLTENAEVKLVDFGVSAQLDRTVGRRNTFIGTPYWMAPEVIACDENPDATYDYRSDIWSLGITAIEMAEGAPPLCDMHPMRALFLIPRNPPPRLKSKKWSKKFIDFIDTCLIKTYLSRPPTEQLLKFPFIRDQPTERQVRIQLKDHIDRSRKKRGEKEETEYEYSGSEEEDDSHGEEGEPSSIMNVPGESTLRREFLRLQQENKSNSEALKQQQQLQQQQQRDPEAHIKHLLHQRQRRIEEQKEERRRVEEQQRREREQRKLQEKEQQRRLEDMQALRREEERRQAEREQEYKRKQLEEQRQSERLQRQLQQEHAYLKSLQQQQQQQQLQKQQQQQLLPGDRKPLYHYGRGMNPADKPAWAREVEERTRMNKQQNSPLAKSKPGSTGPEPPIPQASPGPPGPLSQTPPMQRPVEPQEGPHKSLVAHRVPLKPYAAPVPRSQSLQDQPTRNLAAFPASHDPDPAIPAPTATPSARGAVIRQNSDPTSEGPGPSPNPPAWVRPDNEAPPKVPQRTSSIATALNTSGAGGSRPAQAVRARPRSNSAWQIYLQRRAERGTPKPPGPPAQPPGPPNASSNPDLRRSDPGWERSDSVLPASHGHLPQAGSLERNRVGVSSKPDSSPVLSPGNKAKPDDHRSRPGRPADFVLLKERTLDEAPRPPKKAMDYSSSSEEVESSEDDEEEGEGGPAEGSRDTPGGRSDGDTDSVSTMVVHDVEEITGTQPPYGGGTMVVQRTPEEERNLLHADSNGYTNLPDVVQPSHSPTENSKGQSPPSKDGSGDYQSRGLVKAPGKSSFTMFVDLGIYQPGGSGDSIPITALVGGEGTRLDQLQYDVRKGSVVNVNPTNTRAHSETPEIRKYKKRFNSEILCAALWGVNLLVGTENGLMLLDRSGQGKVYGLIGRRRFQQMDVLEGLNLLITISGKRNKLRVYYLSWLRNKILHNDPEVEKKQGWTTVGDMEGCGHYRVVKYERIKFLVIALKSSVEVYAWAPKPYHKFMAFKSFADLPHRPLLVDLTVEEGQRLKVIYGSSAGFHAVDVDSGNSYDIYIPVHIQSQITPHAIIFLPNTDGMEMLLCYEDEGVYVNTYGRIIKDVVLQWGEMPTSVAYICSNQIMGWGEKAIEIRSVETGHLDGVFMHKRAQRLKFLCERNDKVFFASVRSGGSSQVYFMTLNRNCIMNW
Sequence of RPS6KA1 KD1 KD2 (human) (Q15418 whole entry, looked up): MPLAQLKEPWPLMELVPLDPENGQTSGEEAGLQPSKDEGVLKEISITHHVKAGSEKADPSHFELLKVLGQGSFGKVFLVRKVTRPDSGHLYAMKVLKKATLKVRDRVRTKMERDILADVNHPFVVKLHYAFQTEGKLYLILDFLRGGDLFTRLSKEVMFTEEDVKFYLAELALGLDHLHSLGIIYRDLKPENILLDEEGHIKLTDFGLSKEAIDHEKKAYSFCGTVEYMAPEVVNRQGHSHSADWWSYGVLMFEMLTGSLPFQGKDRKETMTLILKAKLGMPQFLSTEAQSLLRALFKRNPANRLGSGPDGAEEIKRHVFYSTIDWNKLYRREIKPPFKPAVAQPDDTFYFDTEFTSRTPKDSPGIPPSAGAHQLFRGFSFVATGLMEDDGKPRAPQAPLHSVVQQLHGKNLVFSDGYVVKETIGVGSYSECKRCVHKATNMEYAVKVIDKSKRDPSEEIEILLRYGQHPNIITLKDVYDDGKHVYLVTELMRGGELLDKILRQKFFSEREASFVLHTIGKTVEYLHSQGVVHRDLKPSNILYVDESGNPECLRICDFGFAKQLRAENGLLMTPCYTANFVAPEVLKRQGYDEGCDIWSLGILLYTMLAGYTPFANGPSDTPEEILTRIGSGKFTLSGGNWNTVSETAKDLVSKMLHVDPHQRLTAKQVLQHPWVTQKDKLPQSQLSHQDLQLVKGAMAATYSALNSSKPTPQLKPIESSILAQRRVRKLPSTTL
Sequence of NTRK1 (human) (P04629 whole entry, looked up): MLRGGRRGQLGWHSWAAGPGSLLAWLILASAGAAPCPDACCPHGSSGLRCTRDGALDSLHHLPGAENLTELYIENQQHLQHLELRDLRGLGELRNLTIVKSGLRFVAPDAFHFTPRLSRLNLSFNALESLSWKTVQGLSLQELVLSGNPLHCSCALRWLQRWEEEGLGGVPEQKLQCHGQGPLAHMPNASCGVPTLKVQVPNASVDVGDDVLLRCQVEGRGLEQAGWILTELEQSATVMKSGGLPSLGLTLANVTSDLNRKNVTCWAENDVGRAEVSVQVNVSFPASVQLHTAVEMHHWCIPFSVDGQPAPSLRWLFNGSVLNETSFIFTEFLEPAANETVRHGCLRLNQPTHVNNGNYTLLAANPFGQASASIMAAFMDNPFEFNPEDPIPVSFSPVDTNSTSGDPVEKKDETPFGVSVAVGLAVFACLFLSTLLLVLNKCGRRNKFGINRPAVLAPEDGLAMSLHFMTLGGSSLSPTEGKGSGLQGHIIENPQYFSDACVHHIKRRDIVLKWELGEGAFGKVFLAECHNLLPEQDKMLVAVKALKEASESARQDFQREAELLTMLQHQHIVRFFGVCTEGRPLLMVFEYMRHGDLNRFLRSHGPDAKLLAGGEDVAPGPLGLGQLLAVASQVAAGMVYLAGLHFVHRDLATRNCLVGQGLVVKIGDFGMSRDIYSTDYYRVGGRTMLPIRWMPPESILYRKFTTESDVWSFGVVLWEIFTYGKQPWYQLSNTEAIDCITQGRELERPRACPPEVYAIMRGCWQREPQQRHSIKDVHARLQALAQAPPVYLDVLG
Sequence of MAP3K9 (human) (P80192 whole entry, looked up): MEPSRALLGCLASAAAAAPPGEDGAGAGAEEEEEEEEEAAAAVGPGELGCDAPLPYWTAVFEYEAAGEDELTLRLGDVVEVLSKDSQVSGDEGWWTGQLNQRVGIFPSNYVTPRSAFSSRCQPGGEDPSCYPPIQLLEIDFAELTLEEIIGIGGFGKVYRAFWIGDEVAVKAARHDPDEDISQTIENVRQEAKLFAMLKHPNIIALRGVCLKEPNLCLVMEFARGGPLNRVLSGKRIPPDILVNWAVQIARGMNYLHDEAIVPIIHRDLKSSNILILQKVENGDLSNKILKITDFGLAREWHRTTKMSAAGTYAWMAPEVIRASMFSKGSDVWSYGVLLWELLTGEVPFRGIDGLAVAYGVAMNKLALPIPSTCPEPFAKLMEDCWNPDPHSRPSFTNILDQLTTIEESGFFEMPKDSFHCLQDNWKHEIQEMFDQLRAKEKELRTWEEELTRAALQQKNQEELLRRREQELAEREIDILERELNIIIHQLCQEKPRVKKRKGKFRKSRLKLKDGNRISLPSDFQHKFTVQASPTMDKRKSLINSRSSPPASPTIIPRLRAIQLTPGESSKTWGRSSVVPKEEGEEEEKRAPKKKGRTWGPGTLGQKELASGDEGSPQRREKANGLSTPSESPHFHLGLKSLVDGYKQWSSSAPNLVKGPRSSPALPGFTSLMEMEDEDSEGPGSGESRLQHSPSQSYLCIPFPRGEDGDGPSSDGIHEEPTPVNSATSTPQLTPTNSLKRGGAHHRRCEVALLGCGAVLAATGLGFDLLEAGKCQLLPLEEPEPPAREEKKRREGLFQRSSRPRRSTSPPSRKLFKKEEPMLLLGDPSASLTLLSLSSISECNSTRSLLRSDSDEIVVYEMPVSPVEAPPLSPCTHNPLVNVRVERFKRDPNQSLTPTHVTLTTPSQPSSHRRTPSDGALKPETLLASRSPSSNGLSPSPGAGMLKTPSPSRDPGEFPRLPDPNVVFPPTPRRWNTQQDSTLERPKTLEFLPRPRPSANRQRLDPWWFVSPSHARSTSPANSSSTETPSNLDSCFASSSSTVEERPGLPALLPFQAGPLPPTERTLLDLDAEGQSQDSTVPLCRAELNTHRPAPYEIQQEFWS
Sequence of STK33 (human) (Q9BYT3 whole entry, looked up): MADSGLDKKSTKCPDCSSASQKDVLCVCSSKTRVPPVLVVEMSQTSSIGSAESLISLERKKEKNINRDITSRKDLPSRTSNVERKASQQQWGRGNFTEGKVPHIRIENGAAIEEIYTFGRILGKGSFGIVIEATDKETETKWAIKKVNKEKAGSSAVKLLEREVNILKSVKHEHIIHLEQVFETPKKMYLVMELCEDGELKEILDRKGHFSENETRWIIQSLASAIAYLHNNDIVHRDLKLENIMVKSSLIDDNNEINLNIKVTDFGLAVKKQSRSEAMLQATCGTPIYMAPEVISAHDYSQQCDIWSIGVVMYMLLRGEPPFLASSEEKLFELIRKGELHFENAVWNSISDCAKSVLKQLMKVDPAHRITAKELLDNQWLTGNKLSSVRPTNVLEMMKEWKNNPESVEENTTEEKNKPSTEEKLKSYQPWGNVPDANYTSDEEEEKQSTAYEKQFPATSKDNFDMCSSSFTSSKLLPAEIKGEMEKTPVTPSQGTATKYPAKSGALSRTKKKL

| Structure (SMILES) | inhibition [1] [%] | inhibition [2] [%] | inhibition [3] [%] | inhibition [4] [%] | inhibition [5] [%] | inhibition [6] | inhibition [7] [%] | inhibition [8] [%] | inhibition [9] [%] | inhibition [10] [%] | inhibition [11] [%] | inhibition [12] [%] | inhibition [13] [%] | inhibition [14] [%] | inhibition [15] [%] | inhibition ([16]; ATP 20 µM) [%] | inhibition ([16]; ATP 50 µM) [%] | inhibition [17] [%] | inhibition [18] [%] | inhibition [19] [%] | also measured |
| --- | --- | --- | --- | --- | --- | --- | --- | --- | --- | --- | --- | --- | --- | --- | --- | --- | --- | --- | --- | --- | --- |
| CC1CN(c2nc3ccccn3c(=O)c2N)CC(C)O1 (stereo unspecified) | 13 | 0 | 0 | 0 | 1 | 0% and 15% | 0 | 57 | 70 | 75 | 19 | 20 | 37 | 0 | 0 | 31 | 26 | 0 | 0 | 1 | inhibition [20]: 0%; inhibition [21]: 2%; inhibition [22]: 64%; inhibition [23]: 0%; inhibition [24]: 25%; inhibition [25]: 6%; inhibition [26]: 32%; inhibition [27]: 0%; inhibition [28]: 8%; inhibition [29]: 0%; inhibition [30]: 3%; inhibition [31]: 28%; inhibition [32]: 34%; inhibition [33]: 2%; inhibition [34]: 0%; inhibition [35]: 26% |
| CC(=O)Nc1nc2cnc(-c3ccccc3)cn2n1 | 31 | 30 | 0 | 0 | 60 | 0% | 13 | 79 | 2 | 6 | 11 | 4 | 28 | 24 | 17 | 15 | 13 | 39 | 0 | 0 | inhibition [20]: 47%; inhibition [21]: 14%; inhibition [22]: 73%; inhibition [23]: 43%; inhibition [24]: 38%; inhibition [25]: 0%; inhibition [26]: 61%; inhibition [27]: 49%; inhibition [28]: 5%; inhibition [29]: 12%; inhibition [30]: 0%; inhibition [31]: 29%; inhibition [32]: 45%; inhibition [33]: 58%; inhibition [34]: 11%; inhibition [35]: 6% |
| CC(C)(C)Nc1c(C2CC2)nc2[nH]cnn12 | 7 | 3 | 0 | 0 | 0 | 0% and 5% | 0 | 34 | 10 | 13 | 15 | 0 | 27 | 3 | 0 | 3 | 11 | 8 | 14 | 3 | inhibition [20]: 0%; inhibition [21]: 5%; inhibition [22]: 24%; inhibition [23]: 0%; inhibition [24]: 0%; inhibition [25]: 0%; inhibition [26]: 34%; inhibition [27]: 22%; inhibition [28]: 0%; inhibition [29]: 0%; inhibition [30]: 10%; inhibition [31]: 0%; inhibition [32]: 65%; inhibition [33]: 0%; inhibition [34]: 0%; inhibition [35]: 0% |

The next lines start with results.

| inhibition [1] [%] | inhibition [2] [%] | inhibition [3] [%] | inhibition [4] [%] | inhibition [5] [%] | inhibition [6] | inhibition [7] [%] | inhibition [8] [%] | inhibition [9] [%] | inhibition [10] [%] | inhibition [11] [%] | inhibition [12] [%] | inhibition [13] [%] | inhibition [14] [%] | inhibition [15] [%] | inhibition ([16]; ATP 20 µM) [%] | inhibition ([16]; ATP 50 µM) [%] | inhibition [17] [%] | inhibition [18] [%] | inhibition [19] [%] | Structure (SMILES) | also measured |
| --- | --- | --- | --- | --- | --- | --- | --- | --- | --- | --- | --- | --- | --- | --- | --- | --- | --- | --- | --- | --- | --- |
| 26 | 3 | 11 | 9 | 24 | 0% and 19% | 31 | 33 | 33 | 26 | 2 | 0 | 8 | 21 | 0 | 15 | 13 | 59 | 12 | 8 | Cc1cccc(C)c1-c1cn2nc(N)nc2cn1 | inhibition [20]: 0%; inhibition [21]: 12%; inhibition [22]: 27%; inhibition [23]: 18%; inhibition [24]: 0%; inhibition [25]: 6%; inhibition [26]: 29%; inhibition [27]: 8%; inhibition [28]: 12%; inhibition [29]: 0%; inhibition [30]: 56%; inhibition [31]: 43%; inhibition [32]: 42%; inhibition [33]: 45%; inhibition [34]: 6%; inhibition [35]: 15% |
| 20 | 37 | 9 | 27 | 6 | 0% and 11% | 3 | 48 | 15 | 13 | 17 | 0 | 50 | 16 | 7 | 2 | 15 | 29 | 13 | 0 | O=c1cc(-c2ccccc2F)nc2[nH]ccn12 | inhibition [20]: 11%; inhibition [21]: 0%; inhibition [22]: 44%; inhibition [23]: 0%; inhibition [24]: 11%; inhibition [25]: 15%; inhibition [26]: 0%; inhibition [27]: 61%; inhibition [28]: 12%; inhibition [29]: 5%; inhibition [30]: 0%; inhibition [31]: 57%; inhibition [32]: 41%; inhibition [33]: 28%; inhibition [34]: 0%; inhibition [35]: 5% |
| 9 | 2 | 0 | 0 | 0 | 0% and 14% | 0 | 1 | 37 | 3 | 0 | 22 | 0 | 19 | 0 | 29 | 10 | 0 | 0 | 0 | COc1ccc(NC(=S)Nc2cnc3[nH]cnn3c2=O)cn1 | inhibition [20]: 15%; inhibition [21]: 0%; inhibition [22]: 2%; inhibition [23]: 0%; inhibition [24]: 17%; inhibition [25]: 3%; inhibition [26]: 0%; inhibition [27]: 1%; inhibition [28]: 15%; inhibition [29]: 5%; inhibition [30]: 17%; inhibition [31]: 0%; inhibition [32]: 25%; inhibition [33]: 16%; inhibition [34]: 0%; inhibition [35]: 32% |
